From patent publication EP3098220A1, “PROCESS FOR THE PREPARATION OF A NADPH OXIDASE INHIBITOR AND ITS POLYMORPHS AND USES THEREOF” (GenKyoTex SA, priority 2015, dated 2016)
Converted amounts (≈) assume the structure as drawn. “Also recorded” adds a separate entry of the source. Read-outs that look alike come from different tables or passages of the source.

Tests used:
Type in all cases: physicochemical
[1] = Hygroscopicity assessment by dynamic water vapor sorption/desorption analysis (DVS); conditions: for sample mass uptake: 25°C; for hygroscopic character: criteria: 2% maximum uptake at 60% relative humidity
Experimental: The dynamic vapor sorption (DVS) analysis with water is performed on a DVS-Intrinsic incubator from SMS Ltd, equipped with DVS-Intrinsic Control Software 1.0. A sample weight of about 8 to 10mg, placed in an aluminum pan holder, is submitted to a full cycle analysis (sorption followed by desorption) in a dm/dt mode according to the conditions described in Table 6 below. Table 6 [table] The sample obtained after crystallization protocol is pre-dried under a stream of dry filtered air until a stable weight is obtained. Next, relative humidity is increased by 5% increments. For each step, the sample mass is allowed to increase until equilibrium is reached (dm/dt criterion), and then a new relative humidity rise occurs. […] After equilibration at this point, desorption begins in a similar stepwise fashion, with sample weight again allowed to stabilize after each incremental humidity decrease. For each segment of the method described above, the recording of the sample mass allows describing of the whole sorption/desorption behavior versus relative humidity. The hygroscopic character of the two crystal forms has been investigated as described above.

[2] = Solubility assessment of the two crystal forms (solubilized free base concentration over time in pH 7.4 buffer, HPLC); conditions: for solubility: pH 7.4
Experimental: The solubility of the two crystal forms have been characterized as described below: • A suspension is prepared in the buffer. Magnetic stirring is applied at 100 rpm.
The concentration of the free base in solution in buffer solution at pH 7.4 (38g Na2HPO4, 12 H2O + 3,8g NaH2PO4, 2 H2O completed to 1L with de-ionized water) is determined after 30 min, […], 2h, 4h, 6h and 24h at ambient temperature protected from light. For that purpose, the samples are withdrawn and filtered on filter Millex PVDF 0.22µm (diameter=13mm) and diluted in water/acetonitrile 50/50 (v/v) in order to reach a concentration in the range of standard solutions concentrations. Two separated dilutions are performed for each sample and the final result is the mean of these two dilutions results. The concentration of the solubilized fraction is determined by HPLC by a short gradient reverse phase standard method with UV-diode array detection solution.
The following tables display the solubilized freebase concentrations as a function of time at pH 7.4 (Table 10) at 20°C (samples protected from light) for: - Form A : crystalline freebase (sample 2), - Form B : crystalline freebase (sample 1).

[3] = as above; conditions: pH 7.4, 20°C, protected from light
[4] = Solubility assessment in pH 1 HCl/KCl buffer (saturation, 24 hours at 20°C, HPLC); conditions: pH 1, simulated gastric fluid, thermodynamic from solid
Experimental: The solubility of the HC1 salt and of the free base was compared in a pH1 HC1/KC1 buffer and in a pH 7.4 phosphate buffer. For each medium, the saturation of the medium is obtained by adding an excess of active ingredient to a given volume of test medium. The suspension is stirred over 24 hours at 20°C, protected from light. The supernatant is then isolated by centrifugation, diluted in a solvent mixture allowing its injection into the chromatographic system. The compound concentration in solution for each medium is determined by external standardization and HPLC under the conditions detailed in Table3 below. Solubility was tested over a range from 1 µg/mL up to 1 mg/mL.

SMILES	sample mass uptake ([1]; 60% relative humidity) [%]	sample mass uptake ([1]; 95% relative humidity) [%]	hygroscopic character [1]	solubility [2] [µg/mL]	solubility at 30 min ([2]; phosphate buffer, 20 °C, pH 7.4, aqueous buffer, thermodynamic from solid, pH 7.4, 20°C, protected from light, 30min, read-out: Solubilized fraction) [µg/mL]	solubility at 2 h ([2]; phosphate buffer, 20 °C, pH 7.4, aqueous buffer, thermodynamic from solid, pH 7.4, 20°C, protected from light, 2h, read-out: Solubilized fraction) [µg/mL]	solubility at 4 h ([2]; phosphate buffer, 20 °C, pH 7.4, aqueous buffer, thermodynamic from solid, pH 7.4, 20°C, protected from light, 4h, read-out: Solubilized fraction) [µg/mL]	solubility at 6 h ([2]; phosphate buffer, 20 °C, pH 7.4, aqueous buffer, thermodynamic from solid, pH 7.4, 20°C, protected from light, 6h, read-out: Solubilized fraction) [µg/mL]	solubility at 24 h ([2]; phosphate buffer, 20 °C, pH 7.4, aqueous buffer, thermodynamic from solid, pH 7.4, 20°C, protected from light, 24 h, read-out: Solubilized fraction) [µg/mL]	solubility at 1 h ([3]; phosphate buffer, 20 °C, pH 7.4, aqueous buffer, thermodynamic from solid, read-out: Solubilized fraction) [µg/mL]	mass loss upon drying ([1]; drying at 0%RH) [%]	solubility at 24 h [4] [µg/mL]	Solubilized fraction ([2]; pH 7.4, 20°C, protected from light, 30min) [mg/mL]	Solubilized fraction ([2]; pH 7.4, 20°C, protected from light, 2h) [mg/mL]	Solubilized fraction ([2]; pH 7.4, 20°C, protected from light, 4h) [mg/mL]	Solubilized fraction ([2]; pH 7.4, 20°C, protected from light, 6h) [mg/mL]	Solubilized fraction ([2]; pH 7.4, 20°C, protected from light, 24 h) [mg/mL]	solubility ([2]; phosphate buffer, 20 °C, pH 7.4, aqueous buffer, thermodynamic from solid, read-out: Solubility) [µg/mL]	Solubilized fraction ([3]; 1h) [mg/mL]
CN(C)c1cccc(-c2c3c(=O)n(-c4ccccc4Cl)[nH]c3cc(=O)n2C)c1 [free base, 2-(2-chlorophenyl)-4-[3-(dimethylamino)phenyl]-5-methyl-1H-pyrazolo[4,3-c] pyridine-3,6(2H,5H)-dione]	0.2	0.3	non-hygroscopic	–	–	–	–	–	–	–	–	–	–	–	–	–	–	–	–
CN(C)c1cccc(-c2c3c(=O)n(-c4ccccc4Cl)[nH]c3cc(=O)n2C)c1 [Form A, 2-(2-chlorophenyl)-4-[3-(dimethylamino)phenyl]-5-methyl-1H-pyrazolo[4,3-c] pyridine-3,6(2H,5H)-dione]	0.2	0.3	–	500 (≈ 1270 µM)	330 (≈ 836 µM)	370 (≈ 937 µM)	390 (≈ 988 µM)	400 (≈ 1010 µM)	510 (≈ 1290 µM)	350 (≈ 886 µM)	–	–	–	–	–	–	–	–	–
CN(C)c1cccc(-c2c3c(=O)n(-c4ccccc4Cl)[nH]c3cc(=O)n2C)c1 [Form B, 2-(2-chlorophenyl)-4-[3-(dimethylamino)phenyl]-5-methyl-1H-pyrazolo[4,3-c] pyridine-3,6(2H,5H)-dione]	–	–	non-hygroscopic; also recorded: not hygroscopic	–	–	–	–	–	–	–	0.2	> 30000	0.23	0.26	0.27	0.28	0.26	300 (≈ 760 µM)	0.25
